Experimental data: ChEMBL document CHEMBL1221333, “Design, synthesis, and biological evaluation of conformationally constrained glycerol 3-phosphate acyltransferase inhibitors” (Bioorg Med Chem, 2010)

Columns and labels:
[1] = Inhibition of GPAT at 40 ug/ml
[2] = Inhibition of GPAT

`CCCCCCCCCS(=O)(=O)Nc1ccccc1C(=O)O` showed an inhibition [1] of 97% and an IC50 [2] of 24.7 µM.
For `CCCCCCCCS(=O)(=O)N[C@@H]1CC[C@H](C(=O)O)[C@H]1O` (racemic), the inhibition [1] was 25% and the IC50 [2] was 255 µM.
With `CCCCCCCCS(=O)(=O)N[C@H]1CCC[C@H](C(=O)O)[C@H]1O` (racemic) the inhibition [1] was 36% and the IC50 [2] was 164 µM.
With `CCCCCCCCS(=O)(=O)N[C@H]1CC[C@H](C(=O)O)[C@@H]1O` (racemic) the inhibition [1] was 3% and the IC50 [2] was 324 µM.
Work on `CCCCCCCCS(=O)(=O)N[C@H]1CC[C@H](CC(=O)O)[C@H]1O` (racemic) yielded an inhibition [1] of 8% and an IC50 [2] of 295 µM.
In the case of `CCCCCCCCS(=O)(=O)N[C@@H]1CCC[C@H](C(=O)O)[C@H]1O` (racemic), the inhibition [1] is reported as 17%.
For `CCCCCCCCS(=O)(=O)N[C@@H]1CCC[C@H](CC(=O)O)[C@H]1O` (racemic), the inhibition [1] was 17%.
In the case of `CCCCCCCCS(=O)(=O)N[C@@H]1CC[C@H](CC(=O)O)[C@H]1O` (racemic), the inhibition [1] is reported as 16%.
In the case of `CCCCCCCCS(=O)(=O)N[C@@H]1[C@@H](O)CC[C@H]1C(=O)O` (racemic), the inhibition [1] is reported as 12%.
`CCCCCCCCS(=O)(=O)N[C@H]1CCC[C@H](C(=O)O)[C@@H]1O` (racemic) gave an inhibition [1] of 15%.
Compound `CCCCCCCCS(=O)(=O)N[C@H]1CCC[C@H](CC(=O)O)[C@@H]1O` (racemic) has an inhibition [1] of 23%.
Work on `CCCCCCCCS(=O)(=O)N[C@H]1CCC[C@H](CC(=O)O)[C@H]1O` (racemic) yielded an inhibition [1] of 2%.
In the case of `CCCCCCCCS(=O)(=O)N[C@H]1CC[C@H](C(=O)O)[C@H]1O` (racemic), the inhibition [1] is reported as 19%.
Work on `CCCCCCCCS(=O)(=O)N[C@H]1CC[C@H](CC(=O)O)[C@@H]1O` (racemic) yielded an inhibition [1] of 8%.
For `CCCCCCCCS(=O)(=O)N[C@H]1[C@H](O)CC[C@H]1C(=O)O` (racemic), the inhibition [1] was 15%.
